In ChEMBL document CHEMBL1201862, “PubChem BioAssay data set” (2004):
The source made the active and inactive calls.

What was measured:
[1] = MITF Measured in Cell-Based System Using Plate Reader - 2084-01_Inhibitor_Dose_DryPowder_Activity_Set7.; format: functional
[2] = SK-MEL-5 parental cell viability reduction, dose response, orthogonal assay for MITF inhibitor project, CellTiter-Glo luminescence, dry powder, set 8 (AID 651586); format: functional, cell-based
[3] = MITF Orthogonal Assay: MALME3 CTG Assay Measured in Cell-Based System Using Plate Reader - 2084-04_Inhibitor_Dose_DryPowder_Activity_Set6.; format: functional; conditions: MALME-3
[4] = MITF Orthogonal Assay: SK-MEL-5 CTG Assay Measured in Cell-Based System Using Plate Reader - 2084-02_Inhibitor_Dose_DryPowder_Activity_Set5.; format: functional
[5] = cytotoxicity in primary human melanocytes, dose response, cytotoxicity control, cell-based, plate reader, dry powder (AID 651920); format: functional
[6] = MITF Measured in Cell-Based System Using Plate Reader - 2084-01_Inhibitor_Dose_DryPowder_Activity_Set6.; format: functional
[7] = A375 melanoma cell cytotoxicity, dose response, counter-screen for MITF inhibitor project, CellTiter-Glo luminescence, dry powder, set 7 (AID 624490); format: functional, cell-based; conditions: A-375
[8] = MALME3 melanoma cell viability reduction, dose response, orthogonal assay for MITF inhibitor project, CellTiter-Glo luminescence, dry powder, set 5 (AID 651584); format: functional, cell-based; conditions: MALME-3
[9] = TRPM1 promoter luciferase reporter signal decrease, dose response, MITF inhibitor project, cell-based, SK-MEL-5, dry powder, set 9 (AID 651588); format: functional
[10] = A375 melanoma cell viability loss, dose response, counter-screen for MITF inhibitor project, CellTiter-Glo luminescence, dry powder, set 4 (AID 624364); format: functional, cell-based; conditions: A-375;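 note: A375 melanoma cells are MITF independent so this is a counter screen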
[11] = SK-MEL-5 parental line viability, dose response, MITF inhibitor project, cell-based, CellTiter-Glo, dry powder, set 6 (AID 624429); format: functional
[12] = HeLa 4N DNA content increase, dose response, cell-based, IC50 (AID 1117351); format: functional
[13] = HeLa 2N DNA content increase, dose response, cell-based, IC50 (AID 1117349); format: functional
[14] = system: Streptococcus; assay: Group A Streptococcus viability loss, dose response, counter-screen for streptokinase expression inhibitor project, luminescence, BacTiterGlo (AID 1915); format: functional, organism-based;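 note: potency for reduction of bacterial viability or growth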
[15] = system: Streptococcus sp. 'group A'; assay: growth inhibition of control SK(-) GAS strain, dose response, counter-screen for streptokinase expression inhibitor project, luminescence, kanamycin, BacTiterGlo, confirmation (AID 1900); format: functional, organism-based
[16] = molecular target: T1, Caspase-6 (Homo sapiens, UniProt P55212); assay: human caspase-6 inhibitors, dose response, biochemical, VEID-R110 fluorescence, cherry-pick (AID 720632)
T1 sequence (P55212 whole entry): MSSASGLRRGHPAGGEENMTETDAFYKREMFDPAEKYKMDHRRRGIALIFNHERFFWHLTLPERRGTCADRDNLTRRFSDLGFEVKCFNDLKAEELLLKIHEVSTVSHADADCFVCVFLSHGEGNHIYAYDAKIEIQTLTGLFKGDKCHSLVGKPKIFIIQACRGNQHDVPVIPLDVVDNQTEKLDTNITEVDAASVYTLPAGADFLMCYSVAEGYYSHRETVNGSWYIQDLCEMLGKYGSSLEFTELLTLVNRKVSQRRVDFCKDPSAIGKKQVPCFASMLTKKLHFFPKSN

[17] = system: INS1; assay: beta cell apoptosis inhibitors, cytokine rescue, dose response, luminescence, retest (AID 449756); format: functional, cell-based; conditions: Rattus norvegicus;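 note: cell death triggered by IL-1 beta plus TNF-alpha plus IFN-gamma mixture; protective hits raise ATP signal compared with cytokine alone wells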
[18] = molecular target: T2, Protein RecA (Mycobacterium tuberculosis, UniProt P9WHJ3); assay: Fluorescence Cell-Free Homogeneous Dose Retest to Identify Inhibitors of RecA-Intein Splicing Activity. [Related pubchem assays (depositor defined):AID2097, AID2223, AID489010, AID492950]; format: functional
T2 sequence (P9WHJ3 whole entry): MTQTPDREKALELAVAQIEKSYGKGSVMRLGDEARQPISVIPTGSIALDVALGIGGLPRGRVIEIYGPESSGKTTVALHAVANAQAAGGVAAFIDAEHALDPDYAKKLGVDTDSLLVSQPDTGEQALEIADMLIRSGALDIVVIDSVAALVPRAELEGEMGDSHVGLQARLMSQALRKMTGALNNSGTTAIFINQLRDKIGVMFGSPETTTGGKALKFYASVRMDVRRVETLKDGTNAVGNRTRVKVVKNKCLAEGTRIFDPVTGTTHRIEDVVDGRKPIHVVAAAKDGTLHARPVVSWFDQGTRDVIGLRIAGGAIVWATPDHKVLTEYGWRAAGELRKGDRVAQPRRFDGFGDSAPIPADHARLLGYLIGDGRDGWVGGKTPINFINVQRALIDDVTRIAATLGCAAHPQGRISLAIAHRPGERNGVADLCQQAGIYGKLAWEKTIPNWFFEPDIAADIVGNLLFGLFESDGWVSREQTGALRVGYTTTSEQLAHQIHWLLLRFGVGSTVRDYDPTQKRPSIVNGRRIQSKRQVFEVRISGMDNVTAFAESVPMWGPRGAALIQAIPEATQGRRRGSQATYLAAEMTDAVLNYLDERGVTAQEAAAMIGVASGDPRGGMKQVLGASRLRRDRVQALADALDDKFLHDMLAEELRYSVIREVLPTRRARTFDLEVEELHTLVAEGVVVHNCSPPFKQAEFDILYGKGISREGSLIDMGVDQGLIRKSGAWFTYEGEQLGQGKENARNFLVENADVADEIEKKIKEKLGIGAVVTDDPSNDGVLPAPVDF

[19] = molecular target: T3, Streptokinase A (Streptococcus pyogenes serotype M1, UniProt P10520); assay: S. pyogenes streptokinase expression inhibitors, potency, dose response, plasminogen activation absorbance, OD405 (AID 1914); format: functional, Streptococcus pyogenes M1 GAS;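 note: secreted streptokinase activity via plasminogen activation per viability signal from cell pellet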
T3 sequence (P10520 whole entry): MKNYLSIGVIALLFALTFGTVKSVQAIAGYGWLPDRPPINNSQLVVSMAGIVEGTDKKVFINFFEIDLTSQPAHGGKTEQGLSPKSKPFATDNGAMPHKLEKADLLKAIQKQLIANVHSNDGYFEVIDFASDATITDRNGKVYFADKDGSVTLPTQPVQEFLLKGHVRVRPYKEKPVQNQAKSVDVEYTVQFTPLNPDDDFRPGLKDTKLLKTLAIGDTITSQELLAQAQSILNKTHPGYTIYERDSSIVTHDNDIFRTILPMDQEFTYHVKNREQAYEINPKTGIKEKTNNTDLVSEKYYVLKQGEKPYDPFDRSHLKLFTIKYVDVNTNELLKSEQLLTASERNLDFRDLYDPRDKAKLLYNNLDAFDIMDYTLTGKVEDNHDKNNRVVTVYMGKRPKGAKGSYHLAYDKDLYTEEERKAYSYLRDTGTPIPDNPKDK

[20] = Intein inhibitors as potential Tuberculosis drugs, a cytotoxicity screen. [Related pubchem assays (depositor defined):AID2221, AID2223, AID434968, AID435010, AID449749, AID449750, AID489010]; format: functional
[21] = molecular target: T4, Replicative DNA helicase DnaB (Mycobacterium tuberculosis, UniProt P9WMR3); assay: DnaB intein splicing inhibitors, dose response, biochemical, cell-free fluorescence (AID 449749); format: functional
T4 sequence (P9WMR3 whole entry): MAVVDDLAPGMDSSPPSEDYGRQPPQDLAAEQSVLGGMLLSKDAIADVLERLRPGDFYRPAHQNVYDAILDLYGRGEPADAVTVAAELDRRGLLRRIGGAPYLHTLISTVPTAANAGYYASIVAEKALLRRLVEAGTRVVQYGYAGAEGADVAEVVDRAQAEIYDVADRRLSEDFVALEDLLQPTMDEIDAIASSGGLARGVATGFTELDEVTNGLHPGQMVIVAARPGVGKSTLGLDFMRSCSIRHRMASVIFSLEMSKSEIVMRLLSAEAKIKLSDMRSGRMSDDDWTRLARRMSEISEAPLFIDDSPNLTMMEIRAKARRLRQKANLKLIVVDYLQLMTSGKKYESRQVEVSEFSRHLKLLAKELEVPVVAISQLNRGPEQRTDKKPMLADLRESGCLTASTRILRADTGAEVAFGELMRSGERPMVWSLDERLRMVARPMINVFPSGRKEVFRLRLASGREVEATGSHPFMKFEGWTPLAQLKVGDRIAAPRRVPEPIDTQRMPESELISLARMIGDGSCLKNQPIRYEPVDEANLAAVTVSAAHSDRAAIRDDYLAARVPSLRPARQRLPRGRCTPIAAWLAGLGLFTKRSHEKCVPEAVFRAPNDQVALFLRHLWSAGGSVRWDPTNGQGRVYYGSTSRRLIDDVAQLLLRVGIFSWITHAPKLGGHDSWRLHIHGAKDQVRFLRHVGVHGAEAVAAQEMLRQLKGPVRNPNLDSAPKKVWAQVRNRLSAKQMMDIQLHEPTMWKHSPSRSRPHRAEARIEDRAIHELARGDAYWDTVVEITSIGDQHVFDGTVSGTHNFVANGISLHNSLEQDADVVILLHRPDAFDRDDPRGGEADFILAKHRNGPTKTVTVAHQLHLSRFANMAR

[22] = molecular target: E3 ubiquitin-protein ligase UHRF1 (Homo sapiens, UniProt Q96T88); assay: Counterscreen for inhibitors of 5-meCpG-binding domain protein 2 (MBD2): TRFRET-based biochemical high throughput dose response assay to identify inhibitors of binding of ubiquitin-like with PHD and ring finger domains 1 (UHRF1) to methylated oligonucleotide.
[23] = molecular target: RNA-editing ligase 1, mitochondrial (Trypanosoma brucei brucei, UniProt P86926); assay: TbREL1 ligase inhibitors, dose response, biochemical, fluorescence, Trypanosoma brucei (AID 1117295); format: functional
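Throughout, for CC50: cells exposed to compound for 72 hours before luminescence readout.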

RNA-editing ligase 1, mitochondrial, sequence (P86926 whole entry): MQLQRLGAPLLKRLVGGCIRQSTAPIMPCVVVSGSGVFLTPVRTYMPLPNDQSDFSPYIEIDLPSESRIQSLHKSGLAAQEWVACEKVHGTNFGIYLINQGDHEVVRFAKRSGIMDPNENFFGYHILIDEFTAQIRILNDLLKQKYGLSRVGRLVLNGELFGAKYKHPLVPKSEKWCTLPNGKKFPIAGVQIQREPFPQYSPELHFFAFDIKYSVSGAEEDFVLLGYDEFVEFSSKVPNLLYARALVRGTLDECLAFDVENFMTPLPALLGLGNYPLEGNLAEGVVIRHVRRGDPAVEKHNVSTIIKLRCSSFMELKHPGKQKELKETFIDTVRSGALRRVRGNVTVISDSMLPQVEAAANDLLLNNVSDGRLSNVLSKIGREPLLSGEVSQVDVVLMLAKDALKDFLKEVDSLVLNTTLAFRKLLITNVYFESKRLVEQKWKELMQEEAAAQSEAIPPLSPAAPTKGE
E3 ubiquitin-protein ligase UHRF1, sequence (Q96T88 whole entry, the tested form may be a part): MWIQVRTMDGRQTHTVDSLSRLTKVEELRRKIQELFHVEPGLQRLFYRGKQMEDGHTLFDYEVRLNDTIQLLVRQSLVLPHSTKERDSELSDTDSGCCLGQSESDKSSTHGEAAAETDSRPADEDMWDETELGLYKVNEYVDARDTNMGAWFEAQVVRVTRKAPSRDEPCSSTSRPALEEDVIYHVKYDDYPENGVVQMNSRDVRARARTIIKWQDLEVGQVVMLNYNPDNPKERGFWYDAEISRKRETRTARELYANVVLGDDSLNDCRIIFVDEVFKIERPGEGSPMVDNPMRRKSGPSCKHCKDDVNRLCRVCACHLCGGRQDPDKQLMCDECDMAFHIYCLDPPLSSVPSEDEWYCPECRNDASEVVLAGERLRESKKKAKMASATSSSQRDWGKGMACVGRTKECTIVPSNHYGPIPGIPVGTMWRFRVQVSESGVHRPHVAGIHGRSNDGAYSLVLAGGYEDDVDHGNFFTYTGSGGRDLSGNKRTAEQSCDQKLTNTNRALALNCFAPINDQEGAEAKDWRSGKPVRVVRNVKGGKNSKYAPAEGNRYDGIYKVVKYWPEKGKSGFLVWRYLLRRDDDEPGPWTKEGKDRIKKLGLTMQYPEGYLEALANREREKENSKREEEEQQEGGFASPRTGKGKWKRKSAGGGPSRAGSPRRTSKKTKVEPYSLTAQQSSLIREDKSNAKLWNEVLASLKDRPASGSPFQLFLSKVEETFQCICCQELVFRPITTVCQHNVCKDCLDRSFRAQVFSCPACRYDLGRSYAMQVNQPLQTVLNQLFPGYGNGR

## O=C1C=C(NS(=O)(=O)c2cccs2)C(=O)c2ccccc21
[1]
  AC50: 5.89 µM (active)
[2]
  AC50: 32.8 µM (active)
[3]
  AC50: 57.6 µM (active)
[4]
  AC50: 15.8 µM (active)
[5]
  AC50: 17.6 µM (active)
[6]
  AC50: 6.01 µM (active)
[7]
  AC50: > 70 µM (inactive)
[8]
  AC50: 57.6 µM (active)
[9]
  AC50: 16.9 µM (active)
[10]
  AC50: > 70 µM (inactive)
[11]
  AC50: 13.3 µM (active)

## CC(=O)Oc1ccccc1C(=O)Nc1ncc([N+](=O)[O-])s1 [NITAZOXANIDE]
[12]
  IC50: > 10 µM (inactive)
[13]
  IC50: > 10 µM (inactive)

## CCN(CC)CCNC(=O)c1ccc2c(c1NCCO)C(=O)c1ccccc1C2=O
[14]
  EC50: > 150 µM (not active)
[15]
  EC50: 12.9 µM (active)
[16]
  AC50: 5.96 µM (active)
[17]
  AC50: 4.09 µM (active)
[18]
  EC50: 524 nM (active)
[19]
  EC50: > 150 µM (not active)
[20]
  CC50: 26.2 µM (active)
[21]
  AC50: 4.5 µM (active)
[22]
  IC50: > 43.8 µM (inactive)

## C=CCNC1=NC(c2ccccc2C(F)(F)F)C(C(=O)OC)=C(C)N1Cc1cccc(C(F)(F)F)c1 (stereo not drawn)
[23]
  IC50: > 96.6 µM (inactive)
